According to EP2931723B1, “NEW BICYCLIC COMPOUNDS AND THEIR USE AS ANTIBACTERIAL AGENTS AND -LACTAMASE INHIBITORS” (Fedora Pharmaceuticals Inc., priority 2012, dated 2014):

Legend:
Experiment in all cases: MIC, antibacterial and synergistic activity
Type in all cases: cell-based
E. coli ATCC 25922 = E. coli ATCC 25922 (Wt); for MIC Aztreonam + inhibitor: Aztreonam + inhibitor at 4 µg/mL; for MIC Ceftazidime + inhibitor: Ceftazidime + inhibitor at 4 µg/mL; for MIC Meropenem + inhibitor: Meropenem + inhibitor at 4 µg/mL; for MIC: Escherichia coli, ATCC25922, substance alone
K. pneumo JMI 4106 = K. pneumo JMI 4106 (KPC-3, TEM-1, SHV-12, SHV-141); for MIC Aztreonam + inhibitor: Aztreonam + inhibitor at 4 µg/mL; for MIC Ceftazidime + inhibitor: Ceftazidime + inhibitor at 4 µg/mL; for MIC Meropenem + inhibitor: Meropenem + inhibitor at 4 µg/mL; for MIC: substance alone, read-out: MIC
K. pneumo JMI 2681 = K. pneumo JMI 2681 (Oxa-48 (Cpase)); for MIC Aztreonam + inhibitor: Aztreonam + inhibitor at 4 µg/mL; for MIC Ceftazidime + inhibitor: Ceftazidime + inhibitor at 4 µg/mL; for MIC Meropenem + inhibitor: Meropenem + inhibitor at 4 µg/mL; for MIC: substance alone, read-out: MIC
E. cloacae JMI 36 = E. cloacae JMI 36 (P99); for MIC Aztreonam + inhibitor: Aztreonam + inhibitor at 4 µg/mL; for MIC Ceftazidime + inhibitor: Ceftazidime + inhibitor at 4 µg/mL; for MIC Meropenem + inhibitor: Meropenem + inhibitor at 4 µg/mL; for MIC: Enterobacter cloacae, JMI36, substance alone, read-out: MIC
K. pneumo JMI 2674 = K. pneumo JMI 2674 (CTX-M15 (ESBL)); substance alone
P. aerug JMI 2686 = P. aerug JMI 2686 (KPC-2 (Cpase)); substance alone
E. coli JMI 10768 = E. coli JMI 10768 (CTX-M15 (Weak ESBL)); Meropenem + inhibitor at 4 µg/mL
E. coli JMI 10770 = conditions: Escherichia coli, JMI10770; E. coli JMI 10770 (CTX-M15 (Hyper ESBL)); substance alone
E. coli JMI 11103 = conditions: for MIC Aztreonam + inhibitor / MIC Ceftazidime + inhibitor / MIC Meropenem + inhibitor: E. coli JMI 11103 (CTX-M15 (Intermediate ESBL)); for MIC Aztreonam + inhibitor: Aztreonam + inhibitor at 4 µg/mL; for MIC Ceftazidime + inhibitor: Ceftazidime + inhibitor at 4 µg/mL; for MIC Meropenem + inhibitor: Meropenem + inhibitor at 4 µg/mL; for MIC: Escherichia coli, JMI11103, E. coli JMI 11103 (CTX-M15 (Intermediate ESBL)), substance alone

SMILES	MIC Aztreonam + inhibitor (E. coli ATCC 25922) [mg/L]	MIC Ceftazidime + inhibitor (E. coli ATCC 25922) [mg/L]	MIC Meropenem + inhibitor (E. coli ATCC 25922) [mg/L]	MIC (E. coli ATCC 25922) [mg/L]	MIC Aztreonam + inhibitor (K. pneumo JMI 4106) [mg/L]	MIC Ceftazidime + inhibitor (K. pneumo JMI 4106) [mg/L]	MIC Meropenem + inhibitor (K. pneumo JMI 4106) [mg/L]	MIC (K. pneumo JMI 4106) [mg/L]	MIC Aztreonam + inhibitor (K. pneumo JMI 2681) [mg/L]	MIC Ceftazidime + inhibitor (K. pneumo JMI 2681) [mg/L]	MIC Meropenem + inhibitor (K. pneumo JMI 2681) [mg/L]	MIC (K. pneumo JMI 2681) [mg/L]	MIC Aztreonam + inhibitor (E. cloacae JMI 36) [mg/L]	MIC Ceftazidime + inhibitor (E. cloacae JMI 36) [mg/L]	MIC Meropenem + inhibitor (E. cloacae JMI 36) [mg/L]	MIC (E. cloacae JMI 36) [mg/L]	MIC (K. pneumo JMI 2674) [mg/L]	MIC (P. aerug JMI 2686) [mg/L]	MIC Meropenem + inhibitor (E. coli JMI 10768) [mg/L]	MIC (E. coli JMI 10770) [mg/L]	also measured
O=C(NNC(=O)[C@H]1CC[C@H]2CN1C(=O)N2OS(=O)(=O)O)C1CC1 (stereo in doubt) [Ex. 7, (2R,5S)-N'-(cyclopropylcarbonyl)-7-oxo-6-(sulfooxy)-1,6-diazabicyclo[3.2.1]octane-2-carbohydrazide]	≤0.0625	≤0.25	≤0.0312	> 16	0.125	≤0.25	≤0.0312	16	0.25	0.5	0.25	> 16	0.125	0.5	0.125	> 16	> 16	> 16	≤0.0312	8	MIC Aztreonam + inhibitor (E. coli JMI 11103): ≤0.062 mg/L; MIC Ceftazidime + inhibitor (E. coli JMI 11103): ≤0.25 mg/L; MIC Meropenem + inhibitor (E. coli JMI 11103): ≤0.0312 mg/L; MIC (E. coli JMI 11103): 16 mg/L
O=C(NNC(=O)[C@H]1CC[C@H]2CN1C(=O)N2OS(=O)(=O)O)C1CNC1 (stereo in doubt) [Ex. 9, (2R,5S)-N'-(azetidin-3-ylcarbonyl)-7-oxo-6-(sulfooxy)-1,6-diazabicyclo[3.2.1]octane-2-carbohydrazide]	≤0.06	≤0.25	≤0.03	> 16	0.5	≤0.25	0.125	8	0.25	≤0.25	>2	> 16	0.25	≤0.25	0.06	> 16	> 16	16	≤0.03	> 16	MIC Aztreonam + inhibitor (E. coli JMI 11103): ≤0.06 mg/L; MIC Ceftazidime + inhibitor (E. coli JMI 11103): ≤0.25 mg/L; MIC Meropenem + inhibitor (E. coli JMI 11103): ≤0.03 mg/L; MIC (E. coli JMI 11103): > 16 mg/L
